Converted amounts (≈) assume the structure as drawn.
Target: Mtb Pks13-TE domain (wild-type) (Mycobacterium tuberculosis, UniProt I6X8D2)
Experiment: biochemical
Assay type: biochemical
Conditions: Mtb Pks13-TE domain; mean ± s.d. of triplicates; read-out: IC50

Sequence of Mtb Pks13-TE domain (wild-type) (I6X8D2 1451-1733): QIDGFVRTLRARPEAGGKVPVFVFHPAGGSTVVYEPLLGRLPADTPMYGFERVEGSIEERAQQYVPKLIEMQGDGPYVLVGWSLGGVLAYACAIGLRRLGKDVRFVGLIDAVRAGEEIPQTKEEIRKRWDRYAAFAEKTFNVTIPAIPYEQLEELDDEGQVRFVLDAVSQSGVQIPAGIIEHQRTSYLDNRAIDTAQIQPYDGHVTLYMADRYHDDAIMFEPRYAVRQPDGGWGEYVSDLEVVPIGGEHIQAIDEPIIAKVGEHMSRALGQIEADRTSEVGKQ

Row | SMILES | IC50 [µM]
1 | CCOC(=O)c1c(-c2ccc(O)cc2)oc2ccc(O)c(CN3CCCCC3)c12 [compound 22] | 0.17 ± 0.02

Same assay, conditions: Pks13-TE, 20 μM 4-MUH; read-out: IC50

Row | SMILES | IC50 [µM]
2 | Cc1nc2c(CN3CCC(C)CC3)c(O)ccc2[nH]1 [compound 9] | 10
3 | CCOC(=O)c1c(-c2ccc(O)cc2)oc2ccc(O)c(CN3CCCCC3)c12 [compound 22] | 0.19
4 | CCOC(=O)c1c(-c2ccccc2)oc2ccc(O)c(CN3CCCCC3=O)c12 [compound 52] | > 20
5 | CNC(=O)c1c(-c2ccccc2)oc2cc(O)cc(CN3CCC(O)CC3)c12 [compound 68] | > 20
6 | CCOC(=O)c1c(-c2ccc(F)cc2)oc2cc(O)cc(CC[N+](C)(C)C)c12 [compound 75] | > 20
7 | CC(C)NCCc1cc(O)cc2oc(-c3ccc(F)cc3)c(CO)c12 [compound 76] | > 20
8 | CCOC(=O)c1c(-c2ccc(F)cc2)oc2cc(O)cc(CCNC(CO)CO)c12 [compound 78] | 13
9 | CCOC(=O)c1c(-c2ccc(F)cc2)oc2cc(O)cc(CCNCC(O)CO)c12 (stereo not drawn) [compound 79] | > 20
10 | CCOC(=O)c1c(-c2ccc(F)cc2)oc2cc(O)cc(CCNCCN)c12 [compound 80] | > 40
11 | CCOC(=O)c1c(-c2ccc(F)cc2)oc2cc(O)cc(CCNC(=O)C(C)N)c12 (stereo not drawn) [compound 81] | > 40
12 | Cc1nc2c(CN3CCCC3)c(O)ccc2[nH]1 [compound 111] | 10
13 | CCOC(=O)c1c(-c2ccccc2)oc2ccc(O)c(CN3CCC(F)(F)CC3)c12 [compound 119] | 0.8
14 | CNC(=O)c1c(-c2ccccc2)oc2ccc(O)c(CCN3CCS(=O)(=O)CC3)c12 [compound 138] | > 40
15 | CNC(=O)c1c(-c2ccccc2)oc2ccc(O)c(CCN3CCNC(=O)C3)c12 [compound 139] | > 40
16 | CNC(=O)c1c(-c2ccccc2)oc2ccc(O)c(CCN(C(C)C)C(C)C)c12 [compound 140] | > 40
17 | CNC(=O)c1c(-c2ccccc2)oc2ccc(O)c(CCN3CCCCC3)c12 [compound 143] | > 20
18 | CNC(=O)c1c(-c2ccccc2)oc2ccc(O)c(CCNc3ccccc3)c12 [compound 144] | > 40
19 | CNC(=O)c1c(-c2ccccc2)oc2ccc(O)c(CCNC3CCCCC3)c12 [compound 145] | 10
20 | CNC(=O)c1c(-c2ccccc2)oc2ccc(O)c(CCNC3CCC3)c12 [compound 147] | 3.5
21 | CCOC(=O)c1c(-c2ccccc2)oc2ccc(O)c(CCN3[C@H](C)CCC[C@@H]3C)c12 [compound 150] | > 40
22 | CNC(=O)c1c(-c2ccccc2)oc2ccc(O)c(CCN3CCC(O)CC3)c12 [compound 152] | > 40
23 | CNC(=O)c1c(-c2ccccc2)oc2ccc(O)c(CCN3CCC(CO)CC3)c12 [compound 153] | > 40
24 | CNC(=O)c1c(-c2ccccc2)oc2ccc(O)c(CCN3CCCC(CO)C3)c12 (stereo not drawn) [compound 154] | > 20
25 | CNC(=O)c1c(-c2ccccc2)oc2ccc(O)c(CCN3CCCCC3CO)c12 (stereo not drawn) [compound 155] | > 40
26 | CNC(=O)c1c(-c2ccccc2)oc2ccc(O)c(CCN3CCCCC3CCO)c12 (stereo not drawn) [compound 156] | > 40

Row | SMILES | IC50 [µM]
27 | CNC(=O)c1c(-c2ccccc2)oc2ccc(O)c(CCN3CCN(CCO)CC3)c12 [compound 157] | > 40
28 | CNC(=O)c1c(-c2ccccc2)oc2ccc(O)c(CCN3CCC(CCO)CC3)c12 [compound 158] | 20
29 | CNC(=O)c1c(-c2ccccc2)oc2ccc(O)c(CCCN3CC(O)C(O)C3)c12 (stereo not drawn) [compound 163] | > 40
30 | CCOC(=O)c1c(-c2ccccc2)oc2ccc(O)c(CCCN3CCCC(CO)C3)c12 (stereo not drawn) [compound 169] | > 40
31 | CCOC(=O)c1c(-c2ccccc2)oc2ccc(O)c(CCCN3CCCC3CCO)c12 (stereo not drawn) [compound 170] | 4.3
32 | CCOC(=O)c1c(-c2ccccc2)oc2ccc(O)c(CCCN3CCSC3)c12 [compound 173] | 5
33 | CCOC(=O)c1c(-c2ccccc2)oc2ccc(O)c(CCC3CCNCC3)c12 [compound 176] | > 40
34 | CCOC(=O)c1c(-c2ccccc2)oc2ccc(O)c(CCN3CCSC3C)c12 (stereo not drawn) [compound 177] | 1
35 | CCOC(=O)c1c(-c2ccccc2)oc2ccc(O)c(CCN3CCC(CCCCO)C3)c12 (stereo not drawn) [compound 178] | 2
36 | CCOC(=O)c1c(-c2ccccc2)oc2ccc(O)c(CCCN3CCC[C@H]3C)c12 [compound 180] | 1.9
37 | CCOC(=O)c1c(-c2ccccc2)oc2ccc(O)c(CCCN3CCCC3C/C=C/C(=O)NC)c12 (stereo not drawn) [compound 181] | 2.5
38 | CCOC(=O)c1c(-c2ccccc2)oc2ccc(O)c(CCCN3CCCC3CCC(=O)NC)c12 (stereo not drawn) [compound 184] | > 10
39 | CCOC(=O)c1c(-c2ccccc2)oc2ccc(O)c(CCN3CCC(CCCC(N)=O)C3)c12 (stereo not drawn) [compound 187] | 0.5
40 | CNC(=O)c1c(-c2ccccc2)oc2ccc(O)c(CCCNCc3ncco3)c12 [compound 190] | > 40
41 | CCOC(=O)c1c(-c2ccccc2)oc2ccc(O)c(CCN3CCCOC3)c12 [compound 193] | 5
42 | CNC(=O)c1c(-c2ccccc2)oc2ccc(O)c(CCCN3CCCC4(CC(=O)C4)C3)c12 [compound 194] | > 40
43 | CNC(=O)c1c(-c2ccccc2)oc2ccc(O)c(CCCNCC(C)c3ncco3)c12 (stereo not drawn) [compound 196] | > 20
44 | CCOC(=O)c1c(-c2ccccc2)oc2ccc(O)c(CCCN3CC(O)C3)c12 [compound 197] | 7.5
45 | CCOC(=O)c1c(-c2ccccc2)oc2ccc(O)c(CCCN3CC(CO)C3)c12 [compound 198] | 5
46 | CNC(=O)c1c(-c2ccccc2)oc2ccc(O)c(CCCN3CCC4(CC3)CC(=O)C4)c12 [compound 207] | 10
47 | CN(C)C(=O)c1c(-c2ccc(O)cc2)oc2cc(O)cc(CCCN3CCC3)c12 [compound 208] | 4
48 | CN(C)CCc1c(O)ccc2oc(-c3ccc(O)cc3)c(C(=O)N(C)C)c12 [compound 210] | 12
49 | CCOC(=O)c1c(-c2ccc(F)cc2)oc2cc(O)cc(CCNC3CCC(O)CC3)c12 (stereo not drawn) [compound 225] | > 40
50 | CCOC(=O)c1c(-c2ccc(F)cc2)oc2cc(O)cc(CCNC(=O)C3CCCN3)c12 (stereo not drawn) [compound 226] | > 40
51 | CCOC(=O)c1c(-c2ccccc2)oc2ccc(O)c(CCN3CC(C#N)C3)c12 [compound 227] | > 20

Row | SMILES | IC50 [µM]
52 | CNC(=O)c1c(-c2ccccc2)oc2ccc(O)c(CCN3CCC(C(F)(F)F)CC3)c12 [compound 232] | > 20
53 | CNC(=O)c1c(-c2ccccc2)oc2ccc(O)c(CCN3CCCC(C(F)(F)F)C3)c12 (stereo not drawn) [compound 233] | > 10
54 | CCOC(=O)c1c(-c2ccccc2)oc2ccc(O)c(CCCC3CCCC3)c12 [compound 236] | > 10
55 | CNC(=O)c1c(-c2ccccc2)oc2ccc(O)c(CCN3CCCCC3C(F)(F)F)c12 (stereo not drawn) [compound 237] | > 20
56 | CNC(=O)c1c(-c2ccccc2)oc2ccc(O)c(CCC3CCOC3=O)c12 (stereo not drawn) [compound 240] | > 40
57 | CCOC(=O)c1c(-c2ccccc2)oc2ccc(O)c(CCNC3CCOCC3)c12 [compound 241] | > 20
58 | CCOC(=O)c1c(-c2ccc(F)cc2)oc2cc(O)cc(CCN)c12 [compound 242] | > 20
59 | CCOC(=O)c1c(-c2ccc(F)cc2)oc2cc(O)cc(CCNC(=O)OCc3ccccc3)c12 [compound 243] | > 40
60 | CCOC(=O)c1c(-c2ccccc2)oc2ccc(O)c(CCN[C@@H](CC(N)=O)C(=O)O)c12 [compound 246] | 20
61 | CCOC(=O)c1c(-c2ccccc2)oc2ccc(O)c(CCNC(C(=O)O)C(F)(F)F)c12 (stereo not drawn) [compound 247] | > 40
62 | CNC(=O)c1c(-c2ccccc2)oc2ccc(O)c(CCN[C@@H](Cc3cnc[nH]3)C(=O)OC)c12 [compound 250] | 2.4
63 | CNC(=O)c1c(-c2ccccc2)oc2ccc(O)c(CCNCC3CCCO3)c12 (stereo not drawn) [compound 252] | 1.6
64 | CCOC(=O)c1c(-c2ccccc2)oc2ccc(O)c(CCNC3CCOC3)c12 (stereo not drawn) [compound 254] | 2.7
65 | CCOC(=O)c1c(-c2ccccc2)oc2ccc(O)c(CCCNCc3ccoc3)c12 [compound 255] | 2.1
66 | CCOC(=O)c1c(-c2ccccc2)oc2ccc(O)c(CCNC(CO)Cc3cnc[nH]3)c12 (stereo not drawn) [compound 256] | 1.5
67 | CNC(=O)c1c(-c2ccccc2)oc2ccc(O)c(CCN3CC(CO)(CBr)C3)c12 [compound 257] | 1.25
68 | CNC(=O)c1c(-c2ccccc2)oc2ccc(O)c(CCN3CCC(CO)(CBr)C3)c12 (stereo not drawn) [compound 258] | 2.5
69 | CNC(=O)c1c(-c2ccccc2)oc2ccc(O)c(CCN[C@@H](Cc3cnc[nH]3)C(=O)NC)c12 [compound 259] | 1
70 | CNC(=O)c1c(-c2ccccc2)oc2ccc(O)c(CCN[C@H](C)Cc3cnc[nH]3)c12 [compound 260] | 4
71 | CNC(=O)c1c(-c2ccc(F)cc2)oc2cc(O)cc(CCN[C@@H](Cc3ccco3)C(=O)O)c12 [compound 262] | > 40
72 | CCOC(=O)c1c(-c2ccccc2)oc2ccc(O)c(CCN3CCC4(COC4)C3)c12 [compound 264] | 2.5
73 | CCOC(=O)c1c(-c2ccccc2)oc2ccc(O)c(CCN3CC4COCC4C3)c12 (stereo not drawn) [compound 266] | 10
74 | CCOC(=O)c1c(-c2ccccc2)oc2ccc(O)c(CCN3CCC4(CC3)COC4)c12 [compound 267] | > 40
75 | CNC(=O)c1c(-c2ccccc2)oc2ccc(O)c(CCCN3CCC3)c12 [compound 271] | 7

Same assay, conditions: Pks13-TE; read-out: IC50 (μM), given as NB / NI

Row | SMILES | IC50 [µM]
76 | CCOC(=O)c1c(-c2ccccc2)oc2ccc(OC)c(CC3CCCCC3)c12 [compound 15] | > 20

Test system: Mtb strain mc^27000
Experiment: microbe, parasite or virus in culture
Assay type: cell-based, Mycobacterium tuberculosis
Conditions: Mycobacterium tuberculosis, Mtb mc^27000, liquid medium, 96-well plates; read-out: MIC

Row | SMILES | MIC [µM]
77 | CCOC(=O)c1c(-c2ccccc2)oc2ccc(O)c(CN3CCC(C)CC3)c12 [compound 1] | 2.3 ± 0.2 (≈ 0.905 µg/mL)
78 | CCOC(=O)c1c(-c2ccccc2)oc2cc(Cc3ccccc3)c(O)cc12 [compound 11] | 28 (≈ 10.4 µg/mL)
79 | CCOC(=O)c1c(-c2ccccc2)oc2cc(NC(C)=O)cc(CN3CCCCC3)c12 [compound 30] | 20 to 27 (≈ 8.41 to 11.4 µg/mL)
80 | CCOC(=O)c1c(-c2ccccc2)oc2cc(CN3CCCCC3)cc(OC)c12 [compound 35] | 40 (≈ 15.7 µg/mL)

Same assay, conditions: Mycobacterium tuberculosis, […]; mean ± s.d. of triplicates; NI: no inhibition; read-out: MIC

Row | SMILES | MIC [µM]
81 | CCOC(=O)c1c(-c2ccccc2)oc2ccc(O)c(CN3CCC(C)CC3)c12 [compound 1] | 2.3 ± 0.2 (≈ 0.905 µg/mL)

Reference: patent US20180111913A1, “SUBSTITUTED BENZOFURAN DERIVATIVES AS NOVEL ANTIMYCOBACTERIAL AGENTS” (priority 2015, published 2018)
